Test results: publication PMC12647918 (Nature Communications, 2025)
Values belong to the molecule of their own block, whether it stands above or below them.

Experiments:
tRNA modifications = assay: Measurement of tRNA modification levels by LC-MS/MS; type: cell-based, Human; conditions: K562 cells, 50 μM 5-FU
[1] = system: RNA post-transcriptional modification enzymes (PUS1, PUS3, PUS10, TRUB1, TRUB2, DUS3L, TRMT2A, EMG1); assay: Time-resolved SICFA, 5-FU in K562 cells; type: cell-based, Human; conditions: 50 µM 5-FU, from 4 h, further enhanced with prolonged treatment
TYMS [2] = target: T1, TYMS (Homo sapiens, UniProt P04818); assay: Time-resolved SICFA, 5-FU in K562 cells; conditions: 50 µM 5-FU, 30 min, 10% fixative
[3] = system: Methionine synthase (MTR); assay: SICFA of MTX-treated living K562 cells; type: cell-based, Human; conditions: 2 µM MTX, 30 min
[4] = system: C-1-tetrahydrofolate synthase (MTHFD1); assay: SICFA of MTX-treated living K562 cells; type: cell-based, Human; conditions: 2 µM MTX, 30 min
HDAC6 = target: T2, HDAC6 (Homo sapiens, UniProt Q9UBN7); assay: SICFA and PISA10 stability shift, Panobinostat; conditions: both methods (SICFA and PISA10)
T2 sequence (Q9UBN7 1-1215): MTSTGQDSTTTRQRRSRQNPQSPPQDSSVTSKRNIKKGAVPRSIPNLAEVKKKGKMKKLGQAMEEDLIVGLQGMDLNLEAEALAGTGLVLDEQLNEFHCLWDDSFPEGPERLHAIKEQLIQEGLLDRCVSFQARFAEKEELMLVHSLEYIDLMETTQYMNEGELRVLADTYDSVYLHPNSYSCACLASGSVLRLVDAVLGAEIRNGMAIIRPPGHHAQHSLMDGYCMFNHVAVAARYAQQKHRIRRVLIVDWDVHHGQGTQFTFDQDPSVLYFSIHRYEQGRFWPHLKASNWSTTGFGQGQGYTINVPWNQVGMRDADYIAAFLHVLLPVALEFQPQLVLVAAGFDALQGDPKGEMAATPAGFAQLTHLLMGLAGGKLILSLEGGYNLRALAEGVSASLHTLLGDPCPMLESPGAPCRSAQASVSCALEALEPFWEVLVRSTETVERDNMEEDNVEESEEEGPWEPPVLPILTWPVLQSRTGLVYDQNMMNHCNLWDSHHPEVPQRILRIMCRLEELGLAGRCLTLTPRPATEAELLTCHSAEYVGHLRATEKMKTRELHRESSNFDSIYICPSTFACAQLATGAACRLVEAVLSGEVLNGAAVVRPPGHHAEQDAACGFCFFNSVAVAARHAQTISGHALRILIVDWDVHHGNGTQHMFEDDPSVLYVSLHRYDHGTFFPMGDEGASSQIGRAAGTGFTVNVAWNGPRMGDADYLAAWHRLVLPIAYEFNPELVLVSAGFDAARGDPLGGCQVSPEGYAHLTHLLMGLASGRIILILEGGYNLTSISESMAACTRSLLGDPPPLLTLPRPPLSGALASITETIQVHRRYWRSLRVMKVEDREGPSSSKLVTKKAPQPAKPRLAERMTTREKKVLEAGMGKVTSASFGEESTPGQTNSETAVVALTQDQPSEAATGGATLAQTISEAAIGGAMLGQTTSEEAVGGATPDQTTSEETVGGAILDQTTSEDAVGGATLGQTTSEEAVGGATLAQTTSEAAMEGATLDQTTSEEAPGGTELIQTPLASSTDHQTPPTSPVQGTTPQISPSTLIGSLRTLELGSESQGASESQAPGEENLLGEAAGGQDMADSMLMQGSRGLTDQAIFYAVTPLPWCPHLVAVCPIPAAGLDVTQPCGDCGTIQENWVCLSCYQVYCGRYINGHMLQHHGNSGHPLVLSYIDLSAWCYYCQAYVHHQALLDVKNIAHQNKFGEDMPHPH

HDAC8 = target: T3, HDAC8 (Homo sapiens, UniProt Q9BY41); assay: SICFA and PISA10 stability shift, Panobinostat; conditions: SICFA versus PISA10
T3 sequence (Q9BY41 1-377): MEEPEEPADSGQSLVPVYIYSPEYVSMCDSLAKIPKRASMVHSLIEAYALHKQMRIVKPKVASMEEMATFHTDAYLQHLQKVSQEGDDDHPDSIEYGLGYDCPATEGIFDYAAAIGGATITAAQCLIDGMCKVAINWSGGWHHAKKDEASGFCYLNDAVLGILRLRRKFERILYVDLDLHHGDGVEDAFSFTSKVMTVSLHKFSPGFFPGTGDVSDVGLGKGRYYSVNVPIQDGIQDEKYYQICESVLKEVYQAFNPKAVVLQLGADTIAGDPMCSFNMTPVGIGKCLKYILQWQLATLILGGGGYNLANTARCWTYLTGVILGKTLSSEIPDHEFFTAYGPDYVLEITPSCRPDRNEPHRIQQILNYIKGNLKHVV

HDAC3 = HDAC3 (Homo sapiens, UniProt O15379); assay: SICFA and PISA10 stability shift, Panobinostat; conditions: SICFA versus PISA10
HDAC2 = HDAC2 (Homo sapiens, UniProt Q92769); conditions: both methods (SICFA and PISA10)
RB1 = assay: SICFA stability shift, SNS-032
YES1 = conditions: 1 µM dasatinib, cell lysate, kinobeads ref 26; cited from earlier work
RIPK2 = conditions: 1 µM dasatinib, cell lysate, kinobeads ref 26; cited from earlier work
LYN = conditions: 1 µM dasatinib, cell lysate, kinobeads ref 26; cited from earlier work
CDKN1C = assay: SICFA target identification, dasatinib; type: cell-based, Human; conditions: dasatinib 1 μM, 30 min
TYMS [5] = target: T1, TYMS; conditions: raltitrexed 1 µM, 30 min

T1 sequence (P04818 2-313 limits assumed): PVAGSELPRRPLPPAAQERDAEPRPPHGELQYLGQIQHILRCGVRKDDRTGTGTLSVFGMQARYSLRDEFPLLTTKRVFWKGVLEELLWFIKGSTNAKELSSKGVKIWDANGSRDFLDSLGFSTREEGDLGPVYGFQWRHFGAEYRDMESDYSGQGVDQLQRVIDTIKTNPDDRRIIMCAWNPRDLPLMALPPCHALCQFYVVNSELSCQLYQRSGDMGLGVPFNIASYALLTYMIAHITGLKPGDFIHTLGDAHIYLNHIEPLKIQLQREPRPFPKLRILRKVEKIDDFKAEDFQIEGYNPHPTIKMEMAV
HDAC3, sequence (O15379 whole entry): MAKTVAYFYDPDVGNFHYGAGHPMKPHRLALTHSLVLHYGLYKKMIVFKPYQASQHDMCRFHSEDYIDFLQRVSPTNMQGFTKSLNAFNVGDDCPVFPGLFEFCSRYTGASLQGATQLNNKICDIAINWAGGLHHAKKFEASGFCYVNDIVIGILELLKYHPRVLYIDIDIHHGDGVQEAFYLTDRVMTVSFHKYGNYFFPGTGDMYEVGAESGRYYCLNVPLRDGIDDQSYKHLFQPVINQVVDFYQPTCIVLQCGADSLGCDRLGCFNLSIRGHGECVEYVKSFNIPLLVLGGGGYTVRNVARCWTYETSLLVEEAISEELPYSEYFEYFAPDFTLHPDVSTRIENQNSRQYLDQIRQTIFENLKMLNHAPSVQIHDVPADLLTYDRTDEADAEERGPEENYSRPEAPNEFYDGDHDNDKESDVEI
HDAC3, sequence (Q9Y618 389-480 partner limits assumed): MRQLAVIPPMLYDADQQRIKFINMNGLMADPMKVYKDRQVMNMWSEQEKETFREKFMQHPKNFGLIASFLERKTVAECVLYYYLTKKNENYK
HDAC2, sequence (Q92769 whole entry): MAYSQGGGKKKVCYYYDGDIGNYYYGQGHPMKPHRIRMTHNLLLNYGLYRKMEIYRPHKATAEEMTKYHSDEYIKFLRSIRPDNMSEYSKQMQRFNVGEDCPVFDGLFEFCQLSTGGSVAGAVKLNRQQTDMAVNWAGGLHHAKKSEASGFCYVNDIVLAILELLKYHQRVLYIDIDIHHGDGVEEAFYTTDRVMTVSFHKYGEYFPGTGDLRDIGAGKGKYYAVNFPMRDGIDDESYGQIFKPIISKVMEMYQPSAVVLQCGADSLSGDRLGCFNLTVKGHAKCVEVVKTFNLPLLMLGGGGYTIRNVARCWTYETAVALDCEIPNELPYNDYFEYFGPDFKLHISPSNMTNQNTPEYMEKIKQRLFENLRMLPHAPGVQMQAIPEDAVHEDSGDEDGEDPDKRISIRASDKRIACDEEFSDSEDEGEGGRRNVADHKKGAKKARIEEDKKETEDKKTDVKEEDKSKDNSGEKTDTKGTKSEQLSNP

Structure (SMILES): O=c1[nH]cc(F)c(=O)[nH]1 [5-FU, 5-Fluorouracil]
- changes in RNA (tRNA) modifications (tRNA modifications; 4 h): no significant changes
- tRNA modifications Ψ, ncm5U, hm5C, m5U (tRNA modifications; 24 h): significantly downregulated
- stability of RNA post-transcriptional modification enzymes [1]: significantly increased
- TYMS stability, log2FC (TYMS [2]): 2.11

Structure (SMILES): CN(Cc1cnc2nc(N)nc(N)c2n1)c1ccc(C(=O)N[C@@H](CCC(=O)O)C(=O)O)cc1 [MTX, Methotrexate]
- MTR stability, log2FC [3]: −0.38
- MTHFD1 stability [4]: increased stability

Structure (SMILES): CC(C)(C)c1cnc(CSc2cnc(NC(=O)C3CCNCC3)s2)o1 [SNS-032]
- stability shift of substrate RB1, log2FC (RB1): > 0.5

Structure (SMILES): Cc1nc(Nc2ncc(C(=O)Nc3c(C)cccc3Cl)s2)cc(N2CCN(CCO)CC2)n1 [dasatinib, Dasatinib]
- reduction in binding (YES1): more than 50%
- reduction in binding (RIPK2): more than 50%
- reduction in binding (LYN): more than 50%
- stability of LYN's interacting partner CDKN1C (CDKN1C): reduced the stability

Next, values leading:

- HDAC6 stability (HDAC6): consistent stabilization
- HDAC8 target identification (HDAC8): uniquely identified by SICFA
- HDAC3 stability (HDAC3): opposite trends
- HDAC2 stability (HDAC2): consistent stabilization
Structure (SMILES): Cc1[nH]c2ccccc2c1CCNCc1ccc(/C=C/C(=O)NO)cc1 [Panobinostat]

- soluble TYMS content vs control (western blot) (TYMS [5]; Jurkat cells, 10% and 12% fixative): markedly higher
- target identification by SICFA LC-MS/MS (TYMS [5]; 10% fixative, pool of 5,534 proteins): leading candidate target
Structure (SMILES): Cc1nc2ccc(CN(C)c3ccc(C(=O)N[C@@H](CCC(=O)O)C(=O)O)s3)cc2c(=O)[nH]1 [raltitrexed, Raltitrexed]
